The values that follow are results of earlier work, collected in patent US12016830B2, “Pharmaceutical compositions comprising isotretinoin and processes for preparation and uses thereof” (Acrotech Biopharma Inc., priority 2022, dated 2024).

The conditions of the data set: background statement.

With `CC1=C(/C=C/C(C)=C/C=C/C(C)=C\C(=O)O)C(C)(C)CCC1` [Isotretinoin, 13-cis retinoic acid], the oral bioavailability result is reported as “low oral bioavailability”.
